Results on four compounds are retold here after PMC5100903, “Tissue Kallikrein Inhibitors Based on the Sunflower Trypsin Inhibitor Scaffold – A Potential Therapeutic Intervention for Skin Diseases” (PLoS ONE, 2016).

Holding throughout (test): biochemical
One test has as its target T1, Bovine Trypsin (Bos taurus, UniProt P00760).
T1 construct: purchased Sigma
T1 sequence (P00760 24-246): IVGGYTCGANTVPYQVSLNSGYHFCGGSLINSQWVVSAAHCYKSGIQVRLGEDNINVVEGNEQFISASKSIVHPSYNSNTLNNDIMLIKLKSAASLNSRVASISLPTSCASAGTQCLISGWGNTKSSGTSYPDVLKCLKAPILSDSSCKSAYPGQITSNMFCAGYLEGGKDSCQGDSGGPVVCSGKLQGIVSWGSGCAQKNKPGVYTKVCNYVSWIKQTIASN
On the procedure: (§1) All assays were performed on 96-well microplates and the change in relative fluorescence unit (RFU) was measured by fluorescence spectrometer (BMG FLUOstar OPTIMA). […] Stock solution of Boc-VPR-AMC was prepared by dissolving the solid in dimethyl sulfoxide to 100 mM and 10 mM for MeOSuc-AAPV. For BODIPY_FL casein, it was reconstituted to 1 mg/mL in 1xPBS. […] The % of inhibition was calculated by the following equation: % of Inhibition=(1−(Sample RFU − Min RFU)/(Max RFU − Min RFU)) X100
(§2) Each inhibition curves were done in triplicates with a minimum of five concentration points fitted. Fitting of each curve was done using SigmaPlot with the Four Parameter Logistic Function and the IC50 calculated. […] All tested compounds were reconstituted to stock solution in water.
(§3) The diluent for all the tested compounds, protein and substrate (except KLK7, which was done with 10 mM Tris pH 7.8) was 1xPBS pH 8.0–8.9. […] 20μL of the ligand-protein mixture was pipetted to a well of a 96-well microplate in triplicates. The reaction was started by addition of 90–100 μL of the diluted substrate solution (contained 0.05% v/v Brij35) and the plate incubated at 25°C but 37°C for KLK7. RFU reading for each well was taken 6 minutes (trypsin) or 15 minutes (KLK14, KLK5, KLK8, matriptase, human neutrophil elastase, porcine pancreatic elastase 1, plasma kallikrein and plasmin) or 20 hours (KLK7) after substrate addition.

The target of a further test is T2, KLK14 (Homo sapiens, UniProt Q9P0G3).
T2 construct: purchased R&D
T2 sequence (Q9P0G3 25-251): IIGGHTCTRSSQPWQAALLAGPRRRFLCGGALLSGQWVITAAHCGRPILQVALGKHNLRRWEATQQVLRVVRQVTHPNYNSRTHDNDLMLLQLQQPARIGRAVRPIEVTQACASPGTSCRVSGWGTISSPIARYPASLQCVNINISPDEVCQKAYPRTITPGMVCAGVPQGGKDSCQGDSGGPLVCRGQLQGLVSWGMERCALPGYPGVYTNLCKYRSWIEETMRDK
Type of test: biochemical. On the procedure:
as §1, §2
KLK7 and KLK14 were activated by addition of 1 mM f/c CaCl2 (Sigma, Dorset, U.K.), 0.05% v/v Brij35 (Sigma, Dorset, U.K.), 20 nM f/c thermolysin (Sigma, Dorset, U.K.) and incubated at 37°C for 1 hour. The reaction was stopped by addition of ethylenediaminetetraacetic acid (EDTA, 50 mM f/c). […] The RFU value reached by the thermolysin control was used as the minimum RFU for calculating the % of inhibition for KLK7.
as §3

Another test addresses T3, KLK7 (Homo sapiens, UniProt P49862).
T3 construct: purchased R&D
The settings on record: for inhibition at 11 µM: read-out: % inhibition of KLK7. On the procedure:
All assays were performed on 96-well microplates and the change in relative fluorescence unit (RFU) was measured by fluorescence spectrometer (BMG FLUOstar OPTIMA). The excitation/emission wavelength was 360/460 nm for the substrate Boc-VPR-AMC (Bachem AG, Hauptstrasse, Switzerland) and MeOSuc-AAPV-AMC (Bachem AG, Hauptstrasse, Switzerland) and 485/520 nm for BODIPY_FL casein (Invitrogen, Carlsbad, US). Stock solution of Boc-VPR-AMC was prepared by dissolving the solid in dimethyl sulfoxide to 100 mM and 10 mM for MeOSuc-AAPV. For BODIPY_FL casein, it was reconstituted to 1 mg/mL in 1xPBS. […] The % of inhibition was calculated by the following equation: % of Inhibition=(1−(Sample RFU − Min RFU)/(Max RFU − Min RFU)) X100
as §2
Recombinant KLK7, KLK8 and KLK14 (>95% purity by SDS-PAGE, endotoxin <0.1 ng/μg, R&D, Minneapolis, U.S.) stocks were diluted with 1xPBS to a concentration of 120 nM. KLK7 and KLK14 were activated by addition of 1 mM f/c CaCl2 (Sigma, Dorset, U.K.), 0.05% v/v Brij35 (Sigma, Dorset, U.K.), 20 nM f/c thermolysin (Sigma, Dorset, U.K.) and incubated at 37°C for 1 hour. The reaction was stopped by addition of ethylenediaminetetraacetic acid (EDTA, 50 mM f/c). KLK8 was activated by addition of 11 nM f/c lysyl endopeptidase (Santa Cruz Biotechnology, Dallas, U.S.) and incubation at 37°C for 0.5 hour. […] The RFU value reached by the thermolysin control was used as the minimum RFU for calculating the % of inhibition for KLK7.
The diluent for all the tested compounds, protein and substrate (except KLK7, which was done with 10 mM Tris pH 7.8) was 1xPBS pH 8.0–8.9. The serially diluted ligands were mixed with diluted bovine trypsin (Sigma, Dorset, U.K.) or activated KLK14, or KLK5, or activated KLK8 or matriptase (catalytic domain only, >90% purity by SDS-PAGE, endotoxin <0.1 ng/μg, R&D, Minneapolis, U.S.) or activated KLK7 or human neutrophil elastase (purified from human plasma, >95% purity by SDS-PAGE, Abcam, Cambridge, U.K.) or porcine pancreatic elastase 1 (Sigma, Dorset, U.K.) or human plasma kallikrein or human plasma plasmin (purified from human plasma, ≥95% purity by SDS-PAGE, BioVision, Milpitas, U.S.). 20μL of the ligand-protein mixture was pipetted to a well of a 96-well microplate in triplicates. The reaction was started by addition of 90–100 μL of the diluted substrate solution (contained 0.05% v/v Brij35) and the plate incubated at 25°C but 37°C for KLK7. RFU reading for each well was taken 6 minutes (trypsin) or 15 minutes (KLK14, KLK5, KLK8, matriptase, human neutrophil elastase, porcine pancreatic elastase 1, plasma kallikrein and plasmin) or 20 hours (KLK7) after substrate addition.

[1] abbreviates: at 11 μM, enzyme 10 nM, BODIPY_FL casein 6.5 μg/mL, 37°C, 20 hours.

Like-named read-outs stand apart in the source and are kept apart here. Positions of bridges follow the written chain, without caps; N, C: chain ends. Residues, ends and D or L forms follow the SMILES beside them.

T3 sequence (P49862 30-253): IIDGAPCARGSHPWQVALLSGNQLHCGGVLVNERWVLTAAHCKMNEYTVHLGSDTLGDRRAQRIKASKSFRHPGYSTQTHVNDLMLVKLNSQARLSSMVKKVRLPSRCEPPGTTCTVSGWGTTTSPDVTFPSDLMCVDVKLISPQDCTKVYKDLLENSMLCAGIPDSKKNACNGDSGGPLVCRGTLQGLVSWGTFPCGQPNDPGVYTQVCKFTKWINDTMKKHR

As to `CC[C@H](C)[C@@H]1NC(=O)[C@H](CO)NC(=O)[C@H](CCCCN)NC(=O)[C@H]([C@@H](C)O)NC(=O)[C@@H]2CSSC[C@H](NC(=O)[C@H](Cc3c[nH]cn3)NC(=O)[C@@H]3CCCN3C(=O)[C@@H]3CCCN3C1=O)C(=O)N[C@@H](Cc1c[nH]c3ccccc13)C(=O)N1CCC[C@H]1C(=O)N[C@@H](CC(=O)O)C(=O)NCC(=O)N[C@@H](CCCNC(=N)N)C(=O)N2` [Analogue 2] (cyclo(CTKSIPPHCWPDGR); disulfide 1-9), the IC50 (commonly the midpoint of a concentration-inhibition curve) against Bovine Trypsin was 20 ± 0.2 nM; against KLK14 it was 85 ± 6 nM. For the same compound, the inhibition – broadly, the change of the read-out against control, counted positive when it falls – at 11 µM at KLK7 is 28%.
Consider `CC[C@H](C)[C@@H]1NC(=O)[C@H](CO)NC(=O)[C@H](CCCNC(=N)N)NC(=O)[C@H]([C@@H](C)O)NC(=O)[C@@H]2CSSC[C@H](NC(=O)[C@H](Cc3c[nH]cn3)NC(=O)[C@@H]3CCCN3C(=O)[C@@H]3CCCN3C1=O)C(=O)N[C@@H](Cc1c[nH]c3ccccc13)C(=O)N1CCC[C@H]1C(=O)N[C@@H](CC(=O)O)C(=O)NCC(=O)N[C@@H](CCCNC(=N)N)C(=O)N2` [Analogue 6] (cyclo(CTRSIPPHCWPDGR); disulfide 1-9), for which the figures for the IC50 against Bovine Trypsin, against KLK14 and on KLK7 were 23 ± 1 nM, 24 ± 2 nM and 534 ± 29 nM, respectively.
With `CC[C@H](C)[C@@H]1NC(=O)[C@H](CO)NC(=O)[C@H](CCCCN)NC(=O)[C@H]([C@@H](C)O)NC(=O)[C@@H]2CSSC[C@H](NC(=O)[C@H](Cc3c[nH]cn3)NC(=O)[C@@H]3CCCN3C(=O)[C@@H]3CCCN3C1=O)C(=O)N[C@@H](Cc1ccccc1)C(=O)N1CCC[C@H]1C(=O)N[C@@H](CC(=O)O)C(=O)NCC(=O)N[C@@H](CCCNC(=N)N)C(=O)N2` [Analogue I10H] (cyclo(CFPDGRCTKSIPPH); disulfide 1-7), the IC50 was 46 ± 2 nM on Bovine Trypsin (enzyme 10 nM, Boc-VPR-AMC 21 μM, 25°C, 6 minutes) and 470 ± 47 nM against KLK14 (enzyme 10 nM, Boc-VPR-AMC 45 μM, 25°C, 15 minutes). Also, at KLK14 (from Table 3 IC50), the “fold potency drop on KLK14 compared to native SFTI” value was roughly 20 fold. Also, at KLK7 (setting [1]), the inhibition at 11 µM worked out at 0%.
For the compound `CC[C@H](C)[C@@H]1NC(=O)[C@@H]2CCCN2C(=O)[C@@H]2CCCN2C(=O)[C@H]([C@@H](C)CC)NC(=O)[C@H](CO)NC(=O)[C@H](CCCCN)NC(=O)[C@H]([C@@H](C)O)NC(=O)[C@@H]2CSSC[C@H](NC1=O)C(=O)N[C@@H](Cc1ccccc1)C(=O)N1CCC[C@H]1C(=O)N[C@@H](CC(=O)O)C(=O)NCC(=O)N[C@@H](CCCNC(=N)N)C(=O)N2` [Native SFTI, Sunflower Trypsin Inhibitor 1, reference compound], the inhibition at 11 µM on KLK7 (setting [1]) came to 18%.
